Assay results as given in patent US20240025919A1, “AZA-TETRACYCLIC OXAZEPINE COMPOUNDS AND USES THEREOF” (Genentech, Inc., priority 2022, published 2024).

How the values were obtained:
KRAS WT = KRAS WT (Homo sapiens (Human), UniProt P01116); test: KRAS WT Biochemical Assay, BODIPY-GDP Exchange TR-FRET (Example 501; 3 nM KRAS WT, 3 nM SOS1, 60-minute incubation); conditions: read-out: KRas HTRF IC50
Outline: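 SOS1-mediated exchange assay: 3 nM biotin-KRAS WT with terbium-streptavidin, started with 3 nM SOS1 and 300 nM BODIPY-GDP, HEPES pH 7.5 with MgCl2. TR-FRET (520/490 nm) read after 60 min; normalized to DMSO and full-inhibition control, IC50 from 4-parameter Hill fit.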

KRAS G12D = KRAS G12D (Homo sapiens (Human), UniProt P01116, G12D); test: KRAS G12D LoEnz Biochemical Assay, BODIPY-GDP Exchange TR-FRET (SOS1-mediated nucleotide exchange); conditions: read-out: KRas (G12D) GDP HTRF IC50
Sequence of KRAS G12D (P01116-2 other isoform, or with tags, fused parts or gaps G12D): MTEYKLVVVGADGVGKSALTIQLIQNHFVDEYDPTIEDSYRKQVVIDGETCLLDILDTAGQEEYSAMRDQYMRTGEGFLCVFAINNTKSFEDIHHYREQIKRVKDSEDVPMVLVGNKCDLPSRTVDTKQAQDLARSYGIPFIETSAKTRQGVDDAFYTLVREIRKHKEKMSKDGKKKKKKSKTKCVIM

Sequence of KRAS WT (P01116-2 other isoform, or with tags, fused parts or gaps): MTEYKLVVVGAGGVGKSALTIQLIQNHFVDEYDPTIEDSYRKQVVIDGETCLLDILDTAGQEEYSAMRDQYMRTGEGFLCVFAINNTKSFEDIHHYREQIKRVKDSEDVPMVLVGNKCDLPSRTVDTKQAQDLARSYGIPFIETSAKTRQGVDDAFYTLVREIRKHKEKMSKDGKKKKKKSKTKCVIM

| Structure (SMILES) | IC50 (KRAS WT) [nM] | IC50 (KRAS G12D) [nM] |
| --- | --- | --- |
| C[C@@H]1Oc2nc(-c3cc(N)c(F)c(F)c3CC(F)(F)F)c(F)c3nc(OC[C@@]45CCCN4C[C@H](F)C5)nc(c23)N2C[C@H]3CC[C@H](N3)[C@@H]12 [Compound 183, 2,3-Difluoro-5-((5S,5aS,6S,9R)-1-fluoro-12-(((2R,7aS)-2-fluorotetrahydro-1H-pyrrolizin-7a(5H)-yl)methoxy)-5-methyl-5a,6,7,8,9,10-hexahydro-5H-4-oxa-3,10a,11,13,14-pentaaza-6,9-methanonaphtho[1,8-ab]heptalene-2-yl)-4-(2,2,2-trifluoroethyl)aniline] | 4.46 | 0.21 |
| C[C@@H]1Oc2nc(-c3cc(N)c(=O)n(C)c3C(F)(F)F)c(F)c3nc(OC[C@@]45CCCN4C[C@H](F)C5)nc(c23)N2C[C@H]3CC[C@H](N3)[C@@H]12 [Compound 184, 3-Amino-5-((5S,5aS,6S,9R)-1-fluoro-12-(((2R,7aS)-2-fluorotetrahydro-1H-pyrrolizin-7a(5H)-yl)methoxy)-5-methyl-5a,6,7,8,9,10-hexahydro-5H-4-oxa-3,10a,11,13,14-pentaaza-6,9-methanonaphtho[1,8-ab]heptalene-2-yl)-1-methyl-6-(trifluoromethyl)pyridin-2(1H)-one] | 393 | 1.98 |
| Cc1nc(N)cc(-c2nc3c4c(nc(OC[C@@]56CCCN5C[C@H](F)C6)nc4c2F)N2C[C@H]4CC[C@H](N4)[C@H]2[C@H](C)O3)c1CC(F)(F)F [Compound 185, 4-((5S,5aS,6S,9R)-1-Fluoro-12-(((2R,7aS)-2-fluorotetrahydro-1H-pyrrolizin-7a(5H)-yl)methoxy)-5-methyl-5a,6,7,8,9,10-hexahydro-5H-4-oxa-3,10a,11,13,14-pentaaza-6,9-methanonaphtho[1,8-ab]heptalene-2-yl)-6-methyl-5-(2,2,2-trifluoromethyl)pyridin-2-amine] | 107 | 1.1 |
| C[C@@H]1Oc2nc(-c3cc(N)c(F)c(Cl)c3CC(F)F)c(F)c3nc(OC[C@@]45CCCN4C[C@H](F)C5)nc(c23)N2C[C@H]3CC[C@H](N3)[C@@H]12 [Compound 186, 3-Chloro-4-(2,2-difluoroethyl)-2-fluoro-5-((5S,5aS,6S,9R)-1-fluoro-12-(((2R,7aS)-2-fluorotetrahydro-1H-pyrrolizin-7a(5H)-yl)methoxy)-5-methyl-5a,6,7,8,9,10-hexahydro-5H-4-oxa-3,10a,11,13,14-pentaaza-6,9-methanonaphtho[1,8-ab]heptalene-2-yl)aniline] | 5.61 | 0.1 |
| C[C@@H]1Oc2nc(-c3cc(N)c(F)cc3CC(F)F)c(F)c3nc(OC[C@@]45CCCN4C[C@H](F)C5)nc(c23)N2C[C@H]3CC[C@H](N3)[C@@H]12 [Compound 187, 4-(2,2-Difluoroethyl)-2-fluoro-5-((5S,5aS,6S,9R)-1-fluoro-12-(((2R,7aS)-2-fluorotetrahydro-1H-pyrrolizin-7a(5H)-yl)methoxy)-5-methyl-5a,6,7,8,9,10-hexahydro-5H-4-oxa-3,10a,11,13,14-pentaaza-6,9-methanonaphtho[1,8-ab]heptalene-2-yl)aniline] | 163 | 0.51 |
| Cc1nc(N)cc(-c2nc3c4c(nc(OC[C@@]56CCCN5C[C@H](F)C6)nc4c2F)N2C[C@H]4CC[C@H](N4)[C@H]2[C@H](C)O3)c1OC(F)F [Compound 188, 5-(Difluoromethoxy)-4-((5S,5aS,6S,9R)-1-fluoro-12-(((2R,7aS)-2-fluorotetrahydro-1H-pyrrolizin-7a(5H)-yl)methoxy)-5-methyl-5a,6,7,8,9,10-hexahydro-5H-4-oxa-3,10a,11,13,14-pentaaza-6,9-methanonaphtho[1,8-ab]heptalene-2-yl)-6-methylpyridin-2-amine] | 225 | 1.26 |
| Cc1nc(N)cc(-c2nc3c4c(nc(OC[C@@]56CCCN5C[C@H](F)C6)nc4c2F)N2C[C@H]4CC[C@H](N4)[C@H]2[C@H](C)O3)c1CC(F)F [Compound 189, 5-(2,2-Difluoroethyl)-4-((5S,5aS,6S,9R)-1-fluoro-12-(((2R,7aS)-2-fluorotetrahydro-1H-pyrrolizin-7a(5H)-yl)methoxy)-5-methyl-5a,6,7,8,9,10-hexahydro-5H-4-oxa-3,10a,11,13,14-pentaaza-6,9-methanonaphtho[1,8-ab]heptalene-2-yl)-6-methylpyridin-2-amine] | 252 | 2.31 |
| C[C@@H]1Oc2nc(-c3cc(N)c(F)c(F)c3CC(F)F)c(F)c3nc(OC[C@@]45CCCN4C[C@H](F)C5)nc(c23)N2C[C@H]3CC[C@H](N3)[C@@H]12 [Compound 190, 4-(2,2-Difluoroethyl)-2,3-difluoro-5-((5S,5aS,6S,9R)-1-fluoro-12-(((2R,7aS)-2-fluorotetrahydro-1H-pyrrolizin-7a(5H)-yl)methoxy)-5-methyl-5a,6,7,8,9,10-hexahydro-5H-4-oxa-3,10a,11,13,14-pentaaza-6,9-methanonaphtho[1,8-ab]heptalene-2-yl)aniline] | 10.1 | 0.11 |
| Cc1c(F)c(N)nc(-c2nc3c4c(nc(OC[C@@]56CCCN5C[C@H](F)C6)nc4c2F)N2C[C@H]4CC[C@H](N4)[C@H]2[C@H](C)O3)c1C(F)(F)F [Compound 191, 3-Fluoro-6-((5S,5aS,6S,9R)-1-fluoro-12-(((2R,7aS)-2-fluorotetrahydro-1H-pyrrolizin-7a(5H)-yl)methoxy)-5-methyl-5a,6,7,8,9,10-hexahydro-5H-4-oxa-3,10a,11,13,14-pentaaza-6,9-methanonaphtho[1,8-ab]heptalen-2-yl)-4-methyl-5-(trifluoromethyl)pyridin-2-amine] | 91.1 | 0.46 |
| C[C@@H]1Oc2nc(N(C)c3ccc(F)c(N)c3)c(F)c3nc(OC[C@@]45CCCN4C[C@H](F)C5)nc(c23)N2C[C@H]3CC[C@H](N3)[C@@H]12 [Compound 193, 4-fluoro-Ni-((5S,5aS,6S,9R)-1-fluoro-12-(((2R,7aS)-2-fluorotetrahydro-1H-pyrrolizin-7a(5H)-yl)methoxy)-5-methyl-5a,6,7,8,9,10-hexahydro-5H-4-oxa-3,10a,11,13,14-pentaaza-6,9-methanonaphtho[1,8-ab]heptalen-2-yl)-Ni-methylbenzene-1,3-diamine] | 128000 | 32800 |
| Cc1nc(N)c(F)c(-c2nc3c4c(nc(OC[C@@]56CCCN5C[C@H](F)C6)nc4c2F)N2C[C@H]4CC[C@H](N4)[C@H]2[C@H](C)O3)c1C(F)(F)F [Compound 194, 3-Fluoro-4-((5S,5aS,6S,9R)-1-fluoro-12-(((2R,7aS)-2-fluorotetrahydro-1H-pyrrolizin-7a(5H)-yl)methoxy)-5-methyl-5a,6,7,8,9,10-hexahydro-5H-4-oxa-3,10a,11,13,14-pentaaza-6,9-methanonaphtho[1,8-ab]heptalen-2-yl)-6-methyl-5-(trifluoromethyl)pyridin-2-amine] | 28.9 | 0.42 |
| Cc1c(F)c(N)c(F)c(-c2nc3c4c(nc(OC[C@@]56CCCN5C[C@H](F)C6)nc4c2F)N2C[C@H]4CC[C@H](N4)[C@H]2[C@H](C)O3)c1Cl [Compound 195, 4-Chloro-2,6-difluoro-3-((5S,5aS,6S,9R)-1-fluoro-12-(((2R,7aS)-2-fluorotetrahydro-1H-pyrrolizin-7a(5H)-yl)methoxy)-5-methyl-5a,6,7,8,9,10-hexahydro-5H-4-oxa-3,10a,11,13,14-pentaaza-6,9-methanonaphtho[1,8-ab]heptalen-2-yl)-5-methylaniline] | 108 | 0.44 |
| C[C@@H]1Oc2nc(-c3c(F)ccc4cc[nH]c(=O)c34)c(F)c3nc(OC[C@@]45CCCN4C[C@H](F)C5)nc(c23)N2C[C@H]3CC[C@H](N3)[C@@H]12 [Compound 196, 7-Fluoro-8-((5S,5aS,6S,9R)-1-fluoro-12-(((2R,7aS)-2-fluorotetrahydro-1H-pyrrolizin-7a(5H)-yl)methoxy)-5-methyl-5a,6,7,8,9,10-hexahydro-5H-4-oxa-3,10a,11,13,14-pentaaza-6,9-methanonaphtho[1,8-ab]heptalen-2-yl)isoquinolin-1(2H)-one] | 20100 | 248 |
| Cc1nc(N)c(Cl)c(-c2nc3c4c(nc(OC[C@@]56CCCN5C[C@H](F)C6)nc4c2F)N2C[C@H]4CC[C@H](N4)[C@H]2[C@H](C)O3)c1C(F)(F)F [Compound 197, 3-Chloro-4-((5S,5aS,6S,9R)-1-fluoro-12-(((2R,7aS)-2-fluorotetrahydro-1H-pyrrolizin-7a(5H)-yl)methoxy)-5-methyl-5a,6,7,8,9,10-hexahydro-5H-4-oxa-3,10a,11,13,14-pentaaza-6,9-methanonaphtho[1,8-ab]heptalen-2-yl)-6-methyl-5-(trifluoromethyl)pyridin-2-amine] | 59.8 | 0.46 |
| Cc1nc(N)c(C)c(-c2nc3c4c(nc(OC[C@@]56CCCN5C[C@H](F)C6)nc4c2F)N2C[C@H]4CC[C@H](N4)[C@H]2[C@H](C)O3)c1C(F)(F)F [Compound 198, 4-((5S,5aS,6S,9R)-1-Fluoro-12-(((2R,7aS)-2-fluorotetrahydro-1H-pyrrolizin-7a(5H)-yl)methoxy)-5-methyl-5a,6,7,8,9,10-hexahydro-5H-4-oxa-3,10a,11,13,14-pentaaza-6,9-methanonaphtho[1,8-ab]heptalen-2-yl)-3,6-dimethyl-5-(trifluoromethyl)pyridin-2-amine] | 85.8 | 0.62 |
| C[C@@H]1Oc2nc(-c3cc(N)cc4c3CC4)c(F)c3nc(OC[C@@]45CCCN4C[C@H](F)C5)nc(c23)N2C[C@H]3CC[C@H](N3)[C@@H]12 [Compound 201, 5-((5S,5aS,6S,9R)-1-Fluoro-12-(((2R,7aS)-2-fluorotetrahydro-1H-pyrrolizin-7a(5H)-yl)methoxy)-5-methyl-5a,6,7,8,9,10-hexahydro-5H-4-oxa-3,10a,11,13,14-pentaaza-6,9-methanonaphtho[1,8-ab]heptalen-2-yl)bicyclo[4.2.0]octa-1(6),2,4-trien-3-amine] | 1620 | 9.19 |
